Molecules are shown by their SMILES. Numbers after ± are expanded uncertainties.

The conditions of the data set: Liquid, Ebulliometric method (Recirculating still).

`CCCCO` [butan-1-ol]: the “vapor or sublimation pressure” value (390.65 K) is listed as 101.3 ± 1 kPa.

Consider `CO` [methanol], for which the “vapor or sublimation pressure” value (337.75 K) worked out at 101.3 ± 1 kPa.

With `C=COC(C)=O` [vinyl acetate], where the note is “345.75 K”, the “vapor or sublimation pressure” value was 101.3 ± 1 kPa.

Usually vapor or sublimation pressure stands for the pressure of vapour in equilibrium with the condensed phase.

The values above are taken from the NIST ThermoML archive (doi:10.1021/je300835h).
